From ChEMBL document CHEMBL3877278, “Antiproliferative activity of amino substituted benzo[b]thieno[2,3-b]pyrido[1,2-a]benzimidazoles explored by 2D and 3D cell culture system” (Eur J Med Chem, 2017)

Legend:
[1] = Lipophilicity, log D of the compound at pH 7.4 by HPLC method; type: physicochemical; details: buffer
[2] = Antiproliferative activity against 2D culture of human T47D cells after 72 hrs MTS assay; type: functional, cell-based
[3] = Lipophilicity, log D of the compound at pH 2.7 by HPLC method; type: physicochemical; details: buffer
[4] = Antiproliferative activity against 2D culture of human MDA-MB-231 cells after 72 hrs MTS assay; type: functional, cell-based; details: MDA-MB-231, 72 h
[5] = Antiproliferative activity against 3D culture of human MDA-MB-231 cells after 72 hrs MTS assay; type: functional, cell-based; details: MDA-MB-231, 72 h
[6] = Antiproliferative activity against 3D culture of human T47D cells after 72 hrs MTS assay; type: functional, cell-based
[7] = Antiproliferative activity against 3D culture of human SK-BR-3 cells after 72 hrs MTS assay; type: functional, cell-based; details: SK-BR-3, 72 h
[8] = Antiproliferative activity against 2D culture of human SK-BR-3 cells after 72 hrs MTS assay; type: functional, cell-based; details: SK-BR-3, 72 h

N#Cc1c(=O)c2sc3cc(F)ccc3c2n2c1[nH]c1ccccc12
logD ([1]; read-out: logD): 3.2
IC50 [2]: > 30 µM
logD [3]: 4.04
IC50 [4]: > 30 µM
IC50 [5]: > 30 µM
IC50 [6]: > 30 µM
IC50 [7]: > 30 µM
IC50 [8]: > 30 µM

CN(C)CCCNc1c(C#N)c2nc3ccccc3n2c2c1sc1ccccc12
logD ([1]; read-out: logD): 3.44
IC50 [2]: 4 µM
logD [3]: 0.69
IC50 [4]: 3 µM
IC50 [5]: 4 µM
IC50 [6]: 23 µM
IC50 [7]: 10 µM
IC50 [8]: 1 µM

CN(C)CCCNc1ccc2c(c1)sc1cc(C#N)c3nc4ccccc4n3c12
logD ([1]; read-out: logD): 2.91
IC50 [2]: 5 µM
logD [3]: 1.03
IC50 [4]: 2 µM
IC50 [5]: 5 µM
IC50 [6]: > 30 µM
IC50 [7]: 27 µM
IC50 [8]: 4 µM

N#Cc1c(N2CCCCC2)c2sc3cc(N4CCCCC4)ccc3c2n2c1nc1ccccc12
IC50 [2]: > 30 µM
IC50 [4]: > 30 µM
IC50 [5]: > 30 µM
IC50 [6]: > 30 µM
IC50 [7]: > 30 µM
IC50 [8]: > 30 µM

CN(C)CCCNc1ccc2cc(C#N)c3nc4ccccc4n3c2c1
logD ([1]; read-out: logD): 2.14
IC50 [2]: 12 µM
logD [3]: 0.44
IC50 [4]: 3 µM
IC50 [5]: 11 µM
IC50 [6]: > 30 µM
IC50 [7]: > 30 µM
IC50 [8]: 4 µM

N#Cc1c(N2CCCCC2)c2ccccc2n2c1nc1ccccc12
logD ([1]; read-out: logD): 6.91
IC50 [2]: > 30 µM
logD [3]: 6.36
IC50 [4]: > 30 µM
IC50 [5]: 3 µM
IC50 [6]: > 30 µM
IC50 [7]: > 30 µM
IC50 [8]: > 30 µM

CC(C)CNc1c(C#N)c2nc3ccccc3n2c2ccccc12
logD ([1]; read-out: logD): 5.52
IC50 [2]: > 30 µM
logD [3]: 2.77
IC50 [4]: > 30 µM
IC50 [5]: > 30 µM
IC50 [6]: > 30 µM
IC50 [7]: > 30 µM
IC50 [8]: 4 µM

N#Cc1c(N2CCNCC2)c2sc3cc(N4CCNCC4)ccc3c2n2c1nc1ccccc12
logD ([1]; read-out: logD): 1.89
IC50 [2]: 12 µM
logD [3]: -0.51
IC50 [4]: 4 µM
IC50 [5]: 17 µM
IC50 [6]: > 30 µM
IC50 [7]: > 30 µM
IC50 [8]: 8 µM

CC(C)CNc1c(C#N)c2nc3ccccc3n2c2c1sc1ccccc12
logD ([1]; read-out: logD): 6.99
IC50 [2]: 5 µM
logD [3]: 4.67
IC50 [4]: 9 µM
IC50 [5]: > 30 µM
IC50 [6]: > 30 µM
IC50 [7]: > 30 µM
IC50 [8]: > 30 µM

N#Cc1c(N2CCNCC2)c2ccc(N3CCNCC3)cc2n2c1nc1ccccc12
logD ([1]; read-out: logD): 0.87
IC50 [2]: 5 µM
logD [3]: -0.98
IC50 [4]: 2 µM
IC50 [5]: 9 µM
IC50 [6]: > 30 µM
IC50 [7]: > 30 µM
IC50 [8]: 7 µM

CC(C)CNc1ccc2cc(C#N)c3nc4ccccc4n3c2c1
logD ([1]; read-out: logD): 6.58
IC50 [2]: 3 µM
logD [3]: 6.45
IC50 [4]: 5 µM
IC50 [5]: > 30 µM
IC50 [6]: 19 µM
IC50 [7]: > 30 µM
IC50 [8]: 1 µM

N#Cc1cc2sc3cc(N4CCNCC4)ccc3c2n2c1nc1ccccc12
logD ([1]; read-out: logD): 2.75
IC50 [2]: 5 µM
logD [3]: 0.84
IC50 [4]: 4 µM
IC50 [5]: 19 µM
IC50 [6]: 26 µM
IC50 [7]: 24 µM
IC50 [8]: 2 µM

COc1cccc2c1C(=O)c1c(O)c3c(c(O)c1C2=O)C[C@@](O)(C(=O)CO)C[C@@H]3O[C@H]1C[C@H](N)[C@H](O)[C@H](C)O1 [DOXORUBICIN]
IC50 [2]: 0.08 µM
IC50 [6]: 1.01 µM
IC50 [7]: 1.29 µM

CC(C)CNc1ccc2c(NCC(C)C)c(C#N)c3nc4ccccc4n3c2c1
IC50 [2]: 12 µM
IC50 [4]: > 30 µM
IC50 [5]: > 30 µM
IC50 [6]: 19 µM
IC50 [7]: > 30 µM
IC50 [8]: 5 µM

N#Cc1c(N2CCNCC2)c2sc3ccccc3c2n2c1nc1ccccc12
logD ([1]; read-out: logD): 3.44
IC50 [2]: 5 µM
logD [3]: 1.08
IC50 [4]: 5 µM
IC50 [5]: 5 µM
IC50 [6]: > 30 µM
IC50 [7]: > 30 µM
IC50 [8]: 4 µM

N#Cc1cc2ccc(F)cc2n2c1nc1ccccc12
logD ([1]; read-out: logD): 5.11
IC50 [2]: > 30 µM
logD [3]: 5.14
IC50 [4]: 30 µM
IC50 [5]: > 30 µM
IC50 [6]: > 30 µM
IC50 [7]: > 30 µM
IC50 [8]: > 30 µM

CC(C)CNc1ccc2c(c1)sc1c(NCC(C)C)c(C#N)c3nc4ccccc4n3c12
IC50 [2]: 4 µM
IC50 [4]: > 30 µM
IC50 [5]: > 30 µM
IC50 [6]: 8 µM
IC50 [7]: > 30 µM
IC50 [8]: > 30 µM

N#CC1C(=O)c2ccc(F)cc2-n2c1nc1ccccc12 (stereo not drawn)
logD ([1]; read-out: logD): 2.46
IC50 [2]: > 30 µM
logD [3]: 3
IC50 [4]: > 30 µM
IC50 [5]: > 30 µM
IC50 [6]: > 30 µM
IC50 [7]: > 30 µM
IC50 [8]: > 30 µM

N#Cc1cc2sc3cc(N4CCCCC4)ccc3c2n2c1nc1ccccc12
logD ([1]; read-out: logD): 8.5
IC50 [2]: > 30 µM
logD [3]: 8.52
IC50 [4]: > 30 µM
IC50 [5]: > 30 µM
IC50 [6]: > 30 µM
IC50 [7]: > 30 µM
IC50 [8]: > 30 µM

CC(C)CNc1ccc2c(c1)sc1cc(C#N)c3nc4ccccc4n3c12
logD ([1]; read-out: logD): 7.77
IC50 [2]: 2 µM
logD [3]: 7.76
IC50 [4]: 3 µM
IC50 [5]: > 30 µM
IC50 [6]: 12 µM
IC50 [7]: > 30 µM
IC50 [8]: 5 µM

N#Cc1c(Cl)c2sc3ccccc3c2n2c1nc1ccccc12
logD ([1]; read-out: logD): 7.32
IC50 [2]: 1 µM
logD [3]: 7.38
IC50 [4]: > 30 µM
IC50 [5]: > 30 µM
IC50 [6]: > 30 µM
IC50 [7]: > 30 µM
IC50 [8]: > 30 µM

N#Cc1c(Cl)c2ccc(F)cc2n2c1nc1ccccc12
logD ([1]; read-out: logD): 6.05
IC50 [2]: 2 µM
logD [3]: 6.11
IC50 [4]: 11 µM
IC50 [5]: > 30 µM
IC50 [6]: > 30 µM
IC50 [7]: > 30 µM
IC50 [8]: 5 µM

N#Cc1c(N2CCCCC2)c2ccc(N3CCCCC3)cc2n2c1nc1ccccc12
logD [1]: 9.11
IC50 [2]: > 30 µM
logD [3]: 7.51
IC50 [4]: > 30 µM
IC50 [5]: > 30 µM
IC50 [6]: > 30 µM
IC50 [7]: > 30 µM
IC50 [8]: > 30 µM

N#Cc1cc2ccc(N3CCCCC3)cc2n2c1nc1ccccc12
logD ([1]; read-out: logD): 7.07
IC50 [2]: > 30 µM
logD [3]: 7
IC50 [4]: 7 µM
IC50 [5]: > 30 µM
IC50 [6]: > 30 µM
IC50 [7]: > 30 µM
IC50 [8]: 3 µM

N#Cc1c(N2CCNCC2)c2ccccc2n2c1nc1ccccc12
logD ([1]; read-out: logD): 2.22
IC50 [2]: > 30 µM
logD [3]: 0.53
IC50 [4]: 8 µM
IC50 [5]: 7 µM
IC50 [6]: > 30 µM
IC50 [7]: > 30 µM
IC50 [8]: 9 µM

N#CC1C(=O)c2ccccc2-n2c1nc1ccccc12 (stereo not drawn)
logD ([1]; read-out: logD): 2.09
IC50 [2]: > 30 µM
logD [3]: 2.6
IC50 [4]: > 30 µM
IC50 [5]: > 30 µM
IC50 [6]: > 30 µM
IC50 [7]: > 30 µM
IC50 [8]: > 30 µM

N#Cc1c(Cl)c2sc3cc(F)ccc3c2n2c1nc1ccccc12
logD ([1]; read-out: logD): 3.2
IC50 [2]: > 30 µM
logD [3]: 4.04
IC50 [4]: > 30 µM
IC50 [5]: > 30 µM
IC50 [6]: > 30 µM
IC50 [7]: > 30 µM
IC50 [8]: > 30 µM

N#Cc1c(=O)c2sc3ccccc3c2n2c1[nH]c1ccccc12
logD ([1]; read-out: logD): 2.95
IC50 [2]: > 30 µM
logD [3]: 3.76
IC50 [4]: > 30 µM
IC50 [5]: > 30 µM
IC50 [6]: > 30 µM
IC50 [7]: > 30 µM
IC50 [8]: > 30 µM

N#Cc1c(N2CCCCC2)c2sc3ccccc3c2n2c1nc1ccccc12
logD ([1]; read-out: logD): 8.34
IC50 [2]: 5 µM
logD [3]: 7.7
IC50 [4]: 6 µM
IC50 [5]: > 30 µM
IC50 [6]: > 30 µM
IC50 [7]: > 30 µM
IC50 [8]: > 30 µM

N#Cc1c(Cl)c2ccccc2n2c1nc1ccccc12
logD ([1]; read-out: logD): 5.85
IC50 [2]: 1 µM
logD [3]: 5.9
IC50 [4]: > 30 µM
IC50 [5]: > 30 µM
IC50 [6]: > 30 µM
IC50 [7]: > 30 µM
IC50 [8]: > 30 µM

N#Cc1cc2sc3cc(F)ccc3c2n2c1nc1ccccc12
logD ([1]; read-out: logD): 6.3
IC50 [2]: 1 µM
logD [3]: 6.32
IC50 [4]: > 30 µM
IC50 [5]: > 30 µM
IC50 [6]: > 30 µM
IC50 [7]: > 30 µM
IC50 [8]: > 30 µM

N#Cc1cc2ccc(N3CCNCC3)cc2n2c1nc1ccccc12
logD ([1]; read-out: logD): 2.01
IC50 [2]: 15 µM
logD [3]: 0.27
IC50 [4]: 3 µM
IC50 [5]: 5 µM
IC50 [6]: > 30 µM
IC50 [7]: > 30 µM
IC50 [8]: 2 µM

CN(C)CCCNc1c(C#N)c2nc3ccccc3n2c2ccccc12
logD ([1]; read-out: logD): 2.26
IC50 [2]: 29 µM
logD [3]: -0.05
IC50 [4]: 6 µM
IC50 [5]: 7 µM
IC50 [6]: > 30 µM
IC50 [7]: > 30 µM
IC50 [8]: 4 µM
